From US9884828B2, “Substituted cinnolines as inhibitors of LRRK2 kinase activity” (Imago Pharmaceuticals, Inc., priority 2011, dated 2018)

Target: recombinant GST-LRRK2 (wild-type) (Homo sapiens (Human), UniProt Q5S007)
Test: LRRK2 TR-FRET peptide assay (in vitro kinase activity), wild-type
Type: biochemical
Conditions: not given
Procedure: Compounds as described herein (compounds of Formula I, e.g., compounds of the above Examples) are tested for their in vitro kinase activities using various LRRK2 (including LRRK2 G2019S mutant) assays. […] Serially diluted compounds (1% DMSO as co-solvent) were pre-incubated with recombinant GST-LRRK2 (wild-type, or G2019S mutant, Invitrogen) for 15 minutes at room temperature in 384-well Corning black plates. […] The inhibition of each well was calculated using the control and background readings for that plate. IC50 values were determined from dose-response curves using eight concentrations from the serial dilution of the test compounds.

recombinant GST-LRRK2 (wild-type), sequence (Q5S007 whole entry): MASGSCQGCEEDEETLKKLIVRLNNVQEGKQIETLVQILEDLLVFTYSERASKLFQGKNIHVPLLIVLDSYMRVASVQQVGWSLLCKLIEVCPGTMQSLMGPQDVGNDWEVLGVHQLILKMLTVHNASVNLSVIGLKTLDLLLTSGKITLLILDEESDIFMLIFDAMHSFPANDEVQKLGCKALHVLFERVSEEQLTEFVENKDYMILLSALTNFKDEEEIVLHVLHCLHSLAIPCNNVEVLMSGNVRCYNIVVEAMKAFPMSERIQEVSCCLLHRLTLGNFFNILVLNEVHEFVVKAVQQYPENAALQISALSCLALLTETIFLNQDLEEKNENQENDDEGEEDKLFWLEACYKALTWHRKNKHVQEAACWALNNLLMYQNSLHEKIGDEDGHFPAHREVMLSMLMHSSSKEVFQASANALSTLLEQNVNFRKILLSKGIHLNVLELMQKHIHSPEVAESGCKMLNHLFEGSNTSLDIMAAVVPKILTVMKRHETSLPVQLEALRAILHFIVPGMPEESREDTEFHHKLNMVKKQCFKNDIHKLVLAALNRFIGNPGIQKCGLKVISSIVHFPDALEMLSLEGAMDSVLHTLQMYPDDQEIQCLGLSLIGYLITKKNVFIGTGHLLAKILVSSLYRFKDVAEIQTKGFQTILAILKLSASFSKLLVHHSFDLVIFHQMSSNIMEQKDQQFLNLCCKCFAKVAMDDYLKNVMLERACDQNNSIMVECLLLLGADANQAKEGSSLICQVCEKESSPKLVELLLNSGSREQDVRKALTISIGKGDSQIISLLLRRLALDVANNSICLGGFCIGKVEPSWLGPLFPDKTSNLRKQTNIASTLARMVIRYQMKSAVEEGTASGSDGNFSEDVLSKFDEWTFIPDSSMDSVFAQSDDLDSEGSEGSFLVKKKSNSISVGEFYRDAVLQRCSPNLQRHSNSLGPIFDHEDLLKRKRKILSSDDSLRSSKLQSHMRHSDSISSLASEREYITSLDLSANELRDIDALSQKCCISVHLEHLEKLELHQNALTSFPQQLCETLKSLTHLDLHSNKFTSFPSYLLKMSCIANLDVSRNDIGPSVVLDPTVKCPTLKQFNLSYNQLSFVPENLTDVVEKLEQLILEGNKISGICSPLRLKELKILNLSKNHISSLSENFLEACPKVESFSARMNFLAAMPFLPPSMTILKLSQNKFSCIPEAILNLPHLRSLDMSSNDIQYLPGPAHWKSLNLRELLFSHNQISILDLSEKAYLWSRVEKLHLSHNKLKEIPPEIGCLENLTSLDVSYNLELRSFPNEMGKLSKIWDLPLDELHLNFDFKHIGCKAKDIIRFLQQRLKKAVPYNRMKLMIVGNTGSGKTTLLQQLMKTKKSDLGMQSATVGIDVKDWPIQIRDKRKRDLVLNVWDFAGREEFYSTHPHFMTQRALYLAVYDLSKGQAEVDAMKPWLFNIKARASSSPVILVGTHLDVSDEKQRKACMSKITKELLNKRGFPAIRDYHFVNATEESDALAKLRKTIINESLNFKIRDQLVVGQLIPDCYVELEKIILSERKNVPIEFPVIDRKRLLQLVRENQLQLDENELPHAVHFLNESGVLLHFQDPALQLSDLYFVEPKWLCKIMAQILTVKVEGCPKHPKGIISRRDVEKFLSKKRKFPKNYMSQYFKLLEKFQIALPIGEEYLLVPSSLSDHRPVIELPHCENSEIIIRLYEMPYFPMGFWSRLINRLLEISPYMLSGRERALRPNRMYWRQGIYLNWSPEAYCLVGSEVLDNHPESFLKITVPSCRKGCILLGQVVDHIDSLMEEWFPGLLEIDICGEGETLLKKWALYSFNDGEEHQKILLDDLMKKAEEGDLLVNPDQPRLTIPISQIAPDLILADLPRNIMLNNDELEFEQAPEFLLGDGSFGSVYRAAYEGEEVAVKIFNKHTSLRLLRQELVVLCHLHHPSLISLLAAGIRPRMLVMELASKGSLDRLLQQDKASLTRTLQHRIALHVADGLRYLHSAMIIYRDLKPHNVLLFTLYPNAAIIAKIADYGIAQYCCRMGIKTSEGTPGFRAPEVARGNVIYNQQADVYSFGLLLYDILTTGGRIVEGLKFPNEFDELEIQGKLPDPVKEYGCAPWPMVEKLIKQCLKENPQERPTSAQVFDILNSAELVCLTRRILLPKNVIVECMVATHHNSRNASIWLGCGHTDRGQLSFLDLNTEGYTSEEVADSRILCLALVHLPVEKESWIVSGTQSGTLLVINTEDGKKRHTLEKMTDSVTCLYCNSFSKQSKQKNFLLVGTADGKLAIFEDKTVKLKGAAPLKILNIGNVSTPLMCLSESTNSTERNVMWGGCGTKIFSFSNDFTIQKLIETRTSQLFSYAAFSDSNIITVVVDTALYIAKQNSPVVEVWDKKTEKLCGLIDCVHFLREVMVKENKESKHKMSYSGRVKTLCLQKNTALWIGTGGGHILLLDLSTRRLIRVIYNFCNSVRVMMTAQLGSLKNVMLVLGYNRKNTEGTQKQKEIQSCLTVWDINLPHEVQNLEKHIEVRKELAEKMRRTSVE

Row | SMILES | IC50 [nM]
1 | C[C@@H](Nc1c(C(N)=O)nnc2cc(-c3ccncc3)ccc12)C1CC1 [Compound 2-100, (R)-4-(1-cyclopropylethylamino)-7-(pyridin-4-yl)cinnoline-3-carboxamide] | < 6
2 | CC(C)Nc1c(C(N)=O)nnc2cc(N3CCN(C)CC3)ccc12 [Compound 4-188, 4-(isopropylamino)-7-(4-methylpiperazin-1-yl)cinnoline-3-carboxamide] | 53

Same assay, conditions: 100 μM ATP, 100 nM biotin-LRRKtide substrate, 10 nM kinase, 60 minutes at room temperature

Row | SMILES | IC50 [nM]
3 | CNc1c(C(N)=O)nnc2cc(-c3ccc(S(C)(=O)=O)cc3)ccc12 [Compound 2-94, 4-(methylamino)-7-(4-(methylsulfonyl)phenyl)cinnoline-3-carboxamide] | 120
4 | CC(C)Nc1c(C(N)=O)nnc2ccc(-c3ccncc3)cc12 [Compound 2-126, 4-(isopropylamino)-6-(pyridin-4-yl)cinnoline-3-carboxamide] | 30
5 | CCC(CC)Nc1c(C(N)=O)nnc2cc(-c3ccncc3)ccc12 [Compound 2-134, 4-(pentan-3-ylamino)-7-(pyridin-4-yl)cinnoline-3-carboxamide] | 26
6 | CC(C)Nc1c(C(N)=O)nnc2ccc(-c3ccccc3)cc12 [Compound 2-124, 4-(isopropylamino)-6-phenylcinnoline-3-carboxamide] | 630
7 | C[C@@H](Nc1c(C(N)=O)nnc2cc(-c3cncc4ccccc34)ccc12)C1CC1 [Compound 2-105, (R)-4-(1-cyclopropylethylamino)-7-(isoquinolin-4-yl)cinnoline-3-carboxamide] | 380
8 | CC(C)Nc1c(C(N)=O)nnc2ccc(-c3ccc(S(C)(=O)=O)cc3)cc12 [Compound 2-125, 4-(isopropylamino)-6-(4-(methylsulfonyl)phenyl)cinnoline-3-carboxamide] | 2900
9 | NC(=O)c1nnc2cc(-c3ccc(N4CCOCC4)cc3)ccc2c1N [Compound 1-9, 4-amino-7-(4-morpholinophenyl)cinnoline-3-carboxamide] | 29700
10 | COc1ccc(C(=O)N(C)C)cc1-c1ccc2c(N[C@H](C)C3CC3)c(C(N)=O)nnc2c1 [Compound 2-107, (R)-4-(1-cyclopropylethylamino)-7-(5-(dimethylcarbamoyl)-2-methoxyphenyl)cinnoline-3-carboxamide] | 48
11 | C=Cc1ccc2c(NC(C)C)c(C(N)=O)nnc2c1 [Compound 2-95, 4-(isopropylamino)-7-vinylcinnoline-3-carboxamide] | 120
12 | CS(=O)(=O)c1ccc(-c2ccc3c(NC4CCOC4)c(C(N)=O)nnc3c2)cc1 (stereo not shown) [Compound 2-23, 7-(4-(methylsulfonyl)phenyl)-4-(tetrahydrofuran-3-ylamino)cinnoline-3-carboxamide] | 17
13 | CS(=O)(=O)c1ccc(-c2ccc3c(N)c(C(N)=O)nnc3c2)cc1 [Compound 1-5, 4-amino-7-(4-(methylsulfonyl)phenyl)cinnoline-3-carboxamide] | 140
14 | C[C@@H](Nc1c(C(N)=O)nnc2cc(-c3ccc4c(c3)NC(=O)C4)ccc12)C1CC1 [Compound 2-120, (R)-4-(1-cyclopropylethylamino)-7-(2-oxoindolin-6-yl)cinnoline-3-carboxamide] | 1
15 | CC(C)Nc1c(C(N)=O)nnc2cc(-c3ccc(N4CCOCC4)cc3)ccc12 [Compound 2-49, 4-(isopropylamino)-7-(4-morpholinophenyl)cinnoline-3-carboxamide] | 9
16 | C[C@@H](Nc1c(C(N)=O)nnc2cc(-c3ccc(S(C)(=O)=O)cc3)ccc12)C1CC1 [Compound 2-41, (R)-4-(1-cyclopropylethylamino)-7-(4-(methylsulfonyl)phenyl)cinnoline-3-carboxamide] | < 6
17 | COCc1ccccc1-c1ccc2c(N[C@H](C)C3CC3)c(C(N)=O)nnc2c1 [Compound 2-104, (R)-4-(1-cyclopropylethylamino)-7-(2-(methoxymethyl)phenyl)cinnoline-3-carboxamide] | 330
18 | CC(C)Nc1c(C(N)=O)nnc2cc(-c3ccc(S(C)(=O)=O)cc3)ccc12 [Compound 2-17, 4-(isopropylamino)-7-(4-(methylsulfonyl)phenyl)cinnoline-3-carboxamide] | 15
19 | CC(C)Nc1c(C(N)=O)nnc2ccc(-c3cnn(C)c3)cc12 [Compound 2-129, 4-(isopropylamino)-6-(1-methyl-1H-pyrazol-4-yl)cinnoline-3-carboxamide] | 380
20 | C[C@@H](Nc1c(C(N)=O)nnc2cc(-c3ccc4c(c3)CC(=O)N4)ccc12)C1CC1 [Compound 2-106, (R)-4-(1-cyclopropylethylamino)-7-(2-oxoindolin-5-yl)cinnoline-3-carboxamide] | 11

The next lines start with the values.

Row | IC50 [nM] | SMILES
21 | 490 | COc1cc(N2CCOCC2=O)ccc1-c1ccc(OC)c(-c2ccc3c(N[C@H](C)C4CC4)c(C(N)=O)nnc3c2)c1 [Compound 9-210, (R)-4-(1-cyclopropylethylamino)-7-(2′,4-dimethoxy-4′-(3-oxomorpholino)biphenyl-3-yl)cinnoline-3-carboxamide]
22 | 170 | CNC(=O)c1nnc2cc(-c3ccc(S(C)(=O)=O)cc3)ccc2c1N[C@H](C)C1CC1 [Compound 12-231, (R)-4-(1-cyclopropylethylamino)-N-methyl-7-(4-(methylsulfonyl)phenyl)cinnoline-3-carboxamide]
23 | 490 | CC(C)Nc1c(C(N)=O)nnc2cc(Oc3ccccc3)ccc12 [Compound 4-74, 4-(isopropylamino)-7-phenoxycinnoline-3-carboxamide]
24 | 990 | C#Cc1nnc2cc(-c3ccc(S(C)(=O)=O)cc3)ccc2c1NC(C)C [Compound 10-87, 3-ethynyl-N-isopropyl-7-(4-(methylsulfonyl)phenyl)cinnolin-4-amine]
25 | 25 | COc1cc(-c2nccnc2OC)ccc1-c1ccc2c(N[C@H](C)C3CC3)c(C(N)=O)nnc2c1 [Compound 11-220, (R)-4-(1-cyclopropylethylamino)-7-(2-methoxy-4-(3-methoxypyrazin-2-yl)phenyl)cinnoline-3-carboxamide]
26 | > 100000 | CC(C)Nc1c(-c2ncco2)nnc2cc(-c3ccc(S(C)(=O)=O)cc3)ccc12 [Compound 3-71, N-isopropyl-7-(4-(methylsulfonyl)phenyl)-3-(oxazol-2-yl)cinnolin-4-amine]
27 | 63 | COc1ccc(N2CCOCC2=O)cc1-c1ccc2c(N[C@H](C)C3CC3)c(C(N)=O)nnc2c1 [Compound 9-209, (R)-4-(1-cyclopropylethylamino)-7-(2-methoxy-5-(3-oxomorpholino)phenyl)cinnoline-3-carboxamide]
28 | 1950 | CNC(=O)c1nnc2cc(C3CC3)ccc2c1N[C@H](C)C1CC1 [Compound 14-236, (R)-7-cyclopropyl-4-(1-cyclopropylethylamino)-N-methylcinnoline-3-carboxamide]
29 | 940 | CC(C)Nc1c(C(N)=O)nnc2cc(CCO)ccc12 [Compound 7-198, 7-(2-hydroxyethyl)-4-(isopropylamino)cinnoline-3-carboxamide]
30 | 1300 | CC(C)Nc1c(C(N)=O)nnc2ccc(N3CCOCC3)cc12 [Compound 4-191, 4-(isopropylamino)-6-morpholinocinnoline-3-carboxamide]
31 | 170 | CC(C)Nc1c(C(N)=O)nnc2cc(N3CCCC3=O)ccc12 [Compound 4-85, 4-(isopropylamino)-7-(2-oxopyrrolidin-1-yl)cinnoline-3-carboxamide]
